Results published in patent publication US11351176B2, “Combination therapy” (MEI Pharma, Inc., priority 2017, dated 2022).

What was measured:
[1] = tested on: relapsed B-cell Non-Hodgkin's Lymphoma (NHL), including Chronic Lymphocytic Leukemia (CLL); experiment: Phase 1b study of Compound A35 and rituximab in patients with relapsed B-cell malignancies; format: in vivo, human
Method: Study of a Combination of a PI3K Inhibitor and a CD20 Inhibitor in Patients with Relapsed B-Cell Non-Hodgkin's Lymphoma (NHL), Including Chronic Lymphocytic Leukemia (CLL)
The purpose of this study is to evaluate the safety and effectiveness of Compound A35 (single dose: 60 mg/day) and rituximab, in patients with relapsed B-cell malignancies.
• Study Type: Interventional • Study Design: Intervention Model: Single Group Assignment • Masking: No masking • Primary Purpose: Treatment
Primary Outcome Measures: • Determine Acceptable Adverse Events That Are Related to Treatment [Time Frame: 6 months of therapy]. To determine the incidence of adverse events, any potential abnormal laboratory results and any dose-limiting toxicities Secondary Outcome Measures: • Efficacy of Compound A35 with Rituximab as assessed by Overall Response (OR) [Time Frame: 2 years]. The efficacy of Compound A35 with Rituximab will be determined by the overall response of subjects calculated as the percent of subjects achieving a complete remission (CR) or a complete remission with incomplete marrow recovery (CRi) or a partial response (PR) according to the International Workshop on Chronic Lymphocytic Leukemia (IWCLL). • Evaluate the PK of Compound A35 with Rituximab (AUC) [Time Frame: 2 years] Determined by the Area Under the Concentration time curve (AUC) • Evaluate the PK of Compound A35 with Rituximab (Cmax) [Time Frame: 2 years] Determined by Peak Plasma Concentration (Cmax)
Eligibility • Ages Eligible for Study: 18 Years and older (Adult, Senior) • Sexes Eligible for Study: All • Accepts Healthy Volunteers: No Criteria Inclusion Criteria: • Diagnosis of relapsed/refractory CLL SLL or FL, MZL, DLBCL and high-grade B-cell lymphoma.
Dosing of Compound A35 is done on a continuous dosing schedule (CS) or an intermittent dosing schedule (IS). On an IS, patients take 60 mg administered once a day on 7 consecutive days followed by 21 days without therapy, with cycles repeated every 28 days. On a CS, patients take 60 mg/day for the entirety of a 28 day cycle. All patients are started on a CS dosing regimen. Patients who complete two cycles of CS are switched to the IS.
In all cases, the dosing of rituximab is 375 mg/m2, administered for a total of 8 doses in 6 months.
15 patients were treated with a regimen consisting of rituximab 375 mg/m^2×8 doses over 6 months and Compound A35 at 60 mg on the CS for 2 cycles then switching to the IS.

[2] = tested on: relapsed chronic lymphocytic leukemia (CLL); conditions: combination of idelalisib and a CD20 inhibitor (e.g., rituximab or ofatumumab); cited from earlier work

For CN1CCC(c2ccccc2CC(C)(C)Nc2nc(N3CCOCC3)nc(-n3c(C(F)F)nc4ccccc43)n2)CC1 [Compound A35], the “response (patients with a reported response)” value ([1]; in combination with rituximab 375 mg/m2 x 8 doses in 6 months, Compound A35 60 mg/day continuous schedule (CS), indolent NHL (9 FL, 1 MZL), 7 of 10 patients) was 70%, the “disease progression on the IS among patients with a disease response after 2 cycles” value ([1]; in combination with rituximab, 8 responders, median follow-up 5.2 months from enrollment) was “none” and the “patients with disease progression, discontinued from the study” value ([1]; in combination with rituximab, CS of Compound A35 60 mg/day, indolent NHL, 10 patients) was 1 patient. The “rate of response (in words)” value ([1]; in combination with rituximab, CS, patients) was “very high rate of response”, the “patients discontinued due to disease progression” value ([1]; in combination with rituximab, Compound A35 60 mg/day, DLBCL, 4 patients) was 3 patients and the “response (patients with a reported response)” value ([1]; in combination with rituximab, Compound A35 60 mg/day, DLBCL, 1 of 4 patients) was 25%. For the same compound, the “patients who developed delayed immune-related toxicity” value ([1]; in combination with rituximab, after 2 cycles CS switched to intermittent schedule (IS, 60 mg 7 days on/21 days off), 1/10 patients, median follow-up 3.4 months on the IS) was 10%, the “effect of the IS on delayed onset immune toxicities and efficacy (in words)” value ([1]; in combination with rituximab, intermittent schedule after 2 CS cycles, preliminary data) was “appears to reduce the incidence of delayed onset immune toxicities without erosion in treatment efficacy” and the “rate of response (in words)” value ([1]; in combination with rituximab, patients with relapsed indolent NHL and CLL/SLL) was “very high rate of response”. The “durability of responses (in words)” value ([1]; in combination with rituximab, relapsed indolent NHL and CLL/SLL) was “appear durable”.

In the case of CC[C@H](Nc1ncnc2[nH]cnc12)c1nc2cccc(F)c2c(=O)n1-c1ccccc1 [idelalisib], the “risk of death due to infection and/or severe adverse effects (in words)” value [2] is given as “alarming increase in the risk of death due to infection and/or severe adverse effects”.
